# Results reported in patent US10704064B2, “Recombinant yeast producing 3-hydroxypropionic acid and method for producing 3-hydroxypropionic acid using the same” (SK Innovation Co., Ltd., priority 2014, dated 2020).
# How the values were obtained:
# [1] = system: AADH; test: AADH in vitro enzyme activity assay from yeast cell lysates; format: biochemical; settings: in vitro, expressed in yeast
# Experimental: AADH activity was measured as described by Kozak et al. (2014, Metab. Eng. 21:46-59) by monitoring the reduction of NAD^+ at 340 nm at 30° C. The yeast cells for the cell lysates were collected, washed with water, and then resuspended into lysis buffer containing 100 mM Tris-HCl buffer (pH 7.5) and 1×EDTA free protease inhibitor cocktail (Roche). The cells were lysed with glass beads in a Precellys 24 homogenizer at 5500 rpm for 3×40 seconds and kept on ice between rounds. Lysates were centrifuged at 16 000 g for 20 min at 4° C. and supernatants were collected. The total protein concentration was determined using the Bradford method.
# The enzyme assay reaction mixture contained 0.1 mM Coenzyme A, 50 mM CHES buffer (pH 9.5), 0.8 mM NAD^+, 0.2 mM DTT and 10 μL of cell extract in a total reaction volume of 200 μL. The reaction was started by adding 10 mM of freshly prepared acetaldehyde solution and reduction of NAD^+ was followed with a Thermo Konelab 20XT analyser.
# Five AADH genes were originally chosen (i.e. ADHEpm, ADHEec, EUTec, EUTdz and LIN1129li) and transformed into the CEN.PK lab strain. These AADHs were expressed from a multicopy plasmid where they were under control of the TEF1 promoter.
# Twenty additional novel AADH genes were chosen from the genome mining analyses to be evaluated for expression and enzyme activity in yeast.
# [2] = system: S. cerevisiae VSK-128 ACS2 deletion strain; test: AADH in vivo growth assay, ACS2 deletion strain on glucose-based agar plates; format: cell-based
# From the text: All copies of the ACS2 gene were deleted from the industrial S. cerevisiae VSK-128 strain in order to generate a strain with a defective PDH-bypass that was incapable of growth on glucose-based medium. Expression vectors carrying the 25 different AADH variants were then transformed into this ACS2 deletion strain to evaluate their ability to recover the growth of this strain on glucose.
# There was a good correlation between the in vitro AADH enzyme activity assays and the in vivo growth recovery analyses.
# [3] = system: ACC1; test: ACC radioactive enzyme assay (14C carbonate) from yeast cell lysates; format: biochemical, S. cerevisiae; settings: strains of Table 13, FIG. 2
# From the text: The most commonly used in vitro ACC assay is based on the usage of radioactive ^14C carbonate. The incorporation of radioactive carbonate into an acid and a non-volatile material (i.e. malonyl-CoA) is followed. The ^14C-labelled sodium bicarbonate which has not been converted to malonyl-CoA is removed by an acid and heat treatment which converts the remaining NaH14CO3 and the possible side products of the reaction into ^14C-labelled CO2.
# This assay described by Diacovich et al. (2002, J. Biol. Chem. 277:31228-31236) has been used to detect ACC activity from yeast lysates (Shi et al. 2014, mBIO 5:3 e01130-14) with slight modifications. The cell lysates were prepared from yeast cells harvested during late exponential or stationary phase. The cells were washed and then resuspended in lysis buffer containing 100 mM potassium phosphate pH 7.5, 2 mM MgCl2, 1 mM dithiothreitol and 1×EDTA free Complete protease inhibitor (Roche). The cells were disrupted by glass beads and the supernatant was collected after centrifugation at 4° C. […]
# The reaction was incubated at 30° C. for 15 min, and stopped by adding 50 μL of 5 M HCl. […] The ^14C content of the samples was determined using a liquid scintillation counter (PerkinElmer Tri-Carb 2810TR). […]
# The radioactive ACC enzyme assay is very sensitive, even pmol/mg/min activities can be detected. […]
substance,measurement,setting,value
"ADHEec: adhE type AADH of Escherichia coli K-12 substr. MG1655, GenBank NP_415757.1",AADH activity,[1],showed AADH activity
same,recovery of the growth deficiency of the ACS2-deletion strain,[2],capable of recovering the growth deficiency
"ACCyl: acetyl-CoA carboxylase of Yarrowia lipolytica CLIB122, GenBank XP_501721.1",relative ranking on ACC1 activity,[3],most promising candidate
